Measured values taken from patent publication US20250129070A1, “BIFUNCTIONAL ANDROGEN RECEPTOR COMPOUNDS” (priority 2023, published 2025).

Key:
VCaP cells = test: VCaP growth inhibition assay; format: cell-based; conditions: 30 pM R1881, 9 days, CTG
Outline: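 VCaP cells in phenol red-free DMEM/5% CSS, pre-incubated 72 h, then stimulated with R1881 (final 30 pM) and treated with 1:5 serial dilutions (final 100 nM to 10 fM) for 9 days at 37 °C. Viability by CellTiter-Glo luminescence; IC50 from 4-parameter logistic fit of RLU vs concentration.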

AR / CBP ternary complex = test: Ternary complex formation assay (sandwich ELISA, AR capture / CBP detection) in VCaP cell lysates; format: cell-based; conditions: 1.5 hours treatment, sandwich ELISA (AR capture, CBP or p300 detection)
Outline: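 VCaP cells (50K/well, 5% charcoal-stripped FBS, ≥3 days) treated with bifunctional compound for 1.5 h, then lysed 30 min at 4 °C. AR captured on anti-AR (AR 441) plates; bound CBP or p300 detected by rabbit mAb plus HRP secondary. QuantaRed chemifluorescence read at ex 570/em 585, immediately and at 5 and 15 min.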

IC50 (VCaP cells)	EC50 (AR / CBP ternary complex)	SMILES
> 100 nM	> 100 nM	C[C@@H]1CC(=O)Nc2cccc(-c3ccc4c(c3)c(-c3cnn(C)c3)nn4CC3CCN(c4ncc(C(=O)NC5C(C)(C)C(Oc6ccc(C#N)c(Cl)c6)C5(C)C)cn4)CC3)c2N1 (stereo partly drawn) [Compound 58, N-[3-(3-chloro-4-cyano-phenoxy)-2,2,4,4-tetramethyl-cyclobutyl]-2-[4-[[5-[(4R)-4-methyl-2-oxo-1,3,4,5-tetrahydro-1,5-benzodiazepin-6-yl]-3-(1-methylpyrazol-4-yl)indazol-1-yl]methyl]-1-piperidyl]pyrimidine-5-carboxamide]
0.1 to 1 nM	< 1 nM	COc1cc(OC2C(C)(C)C(NC(=O)c3ccc(N4CCC(CCc5ccc(-c6cc7c(cn6)N(c6nn(C8CCOCC8)c8c6CN(C(C)=O)CC8)CCC7)cn5)CC4)cc3)C2(C)C)ccc1C#N (stereo not drawn) [Compound 246, 4-[4-[2-[5-[1-(5-acetyl-1-tetrahydropyran-4-yl-6,7-dihydro-4H-pyrazolo[4,3-c]pyridin-3-yl)-3,4-dihydro-2H-1,7-naphthyridin-6-yl]-2-pyridyl]ethyl]-1-piperidyl]-N-[3-(4-cyano-3-methoxy-phenoxy)-2,2,4,4-tetramethyl-cyclobutyl]benzamide]
> 100 nM	> 100 nM	CC(=O)N1CCc2c(c(N3CCCc4cc(-c5cnn(C)c5)c(C(F)F)cc43)nn2C2CCC3(CCCN(c4ncc(C(=O)NC5C(C)(C)C(Oc6ccc(C#N)c(Cl)c6)C5(C)C)cn4)C3)CC2)C1 (stereo not drawn) [Compound 412, 2-[9-[5-acetyl-3-[7-(difluoromethyl)-6-(1-methylpyrazol-4-yl)-3,4-dihydro-2H-quinolin-1-yl]-6,7-dihydro-4H-pyrazolo[4,3-c]pyridin-1-yl]-2-azaspiro[5.5]undecan-2-yl]-N-[3-(3-chloro-4-cyano-phenoxy)-2,2,4,4-tetramethyl-cyclobutyl]pyrimidine-5-carboxamide]
0.1 to 1 nM	10 to 100 nM	CC(=O)N1CCc2c(c(-c3cccc4cc(-c5ccc(CCC6CCN(c7ncc(C(=O)NC8C(C)(C)C(Oc9ccc(C#N)c(Cl)c9)C8(C)C)cn7)CC6)nc5)ncc34)nn2C)C1 (stereo not drawn) [Compound 231, 2-[4-[2-[5-[8-(5-acetyl-1-methyl-6,7-dihydro-4H-pyrazolo[4,3-c]pyridin-3-yl)-3-isoquinolyl]-2-pyridyl]ethyl]-1-piperidyl]-N-[3-(3-chloro-4-cyano-phenoxy)-2,2,4,4-tetramethyl-cyclobutyl]pyrimidine-5-carboxamide]
≤ 0.1 nM	< 1 nM	CC(=O)N1CCc2c(c(N3CCCc4cc(-c5cnn(C)c5)c(C(F)F)cc43)nn2C2CCN(Cc3cn(Cc4ncc(C(=O)NC5C(C)(C)C(Oc6ccc(C#N)c(Cl)c6)C5(C)C)cn4)nn3)CC2)C1 (stereo not drawn) [Compound 188, 2-[[4-[[4-[5-acetyl-3-[7-(difluoromethyl)-6-(1-methylpyrazol-4-yl)-3,4-dihydro-2H-quinolin-1-yl]-6,7-dihydro-4H-pyrazolo[4,3-c]pyridin-1-yl]-1-piperidyl]methyl]triazol-1-yl]methyl]-N-[3-(3-chloro-4-cyano-phenoxy)-2,2,4,4-tetramethyl-cyclobutyl]pyrimidine-5-carboxamide]
≤ 0.1 nM	< 1 nM	CC(=O)N1CCc2c(c(-c3cccc4cc(-c5ccc(C(=O)NC6CCN(c7ncc(C(=O)NC8C(C)(C)C(Oc9ccc(C#N)c(Cl)c9)C8(C)C)cn7)CC6)nc5)ncc34)nn2C2CCOCC2)C1 (stereo not drawn) [Compound 180, 2-[4-[[5-[8-(5-acetyl-1-tetrahydropyran-4-yl-6,7-dihydro-4H-pyrazolo[4,3-c]pyridin-3-yl)-3-isoquinolyl]pyridine-2-carbonyl]amino]-1-piperidyl]-N-[3-(3-chloro-4-cyano-phenoxy)-2,2,4,4-tetramethylcyclobutyl]pyrimidine-5-carboxamide]
0.1 to 1 nM	< 1 nM	CC(=O)N1CCc2c(c(N3CCCc4cc(-c5cnn(C)c5)c(C(F)F)cc43)nn2C2CCC(CN3CCN(c4ncc(C(=O)NC5C(C)(C)C(Oc6ccc(C#N)c(Cl)c6)C5(C)C)cn4)CC3)CC2)C1 (stereo not drawn) [Compound 320, 2-[4-[[4-[5-acetyl-3-[7-(difluoromethyl)-6-(1-methylpyrazol-4-yl)-3,4-dihydro-2H-quinolin-1-yl]-6,7-dihydro-4H-pyrazolo[4,3-c]pyridin-1-yl]cyclohexyl]methyl]piperazin-1-yl]-N-[3-(3-chloro-4-cyano-phenoxy)-2,2,4,4-tetramethyl-cyclobutyl]pyrimidine-5-carboxamide]
≤ 0.1 nM	< 1 nM	COc1cc(OC2C(C)(C)C(NC(=O)c3ccc(N4CC5(CC(N6CCC(n7nc(N8CCCc9cc(-c%10cnn(C)c%10)c(C(F)F)cc98)c8c7CCN(C(C)=O)C8)CC6)C5)C4)cc3)C2(C)C)ccc1C#N (stereo not drawn) [Compound 349, 4-[6-[4-[5-acetyl-3-[7-(difluoromethyl)-6-(1-methylpyrazol-4-yl)-3,4-dihydro-2H-quinolin-1-yl]-6,7-dihydro-4H-pyrazolo[4,3-c]pyridin-1-yl]-1-piperidyl]-2-azaspiro[3.3]heptan-2-yl]-N-[3-(4-cyano-3-methoxy-phenoxy)-2,2,4,4-tetramethyl-cyclobutyl]benzamide]
0.1 to 1 nM	< 1 nM	COC1CN(c2ncc(C(=O)NC3C(C)(C)C(Oc4ccc(C#N)c(Cl)c4)C3(C)C)cn2)CCC1CN1CCC(n2nc(N3CCCc4cc(-c5cnn(C)c5)c(C(F)F)cc43)c3c2CCN(C(C)=O)C3)CC1 (stereo not drawn) [Compound 331, 2-[4-[[4-[5-acetyl-3-[7-(difluoromethyl)-6-(1-methylpyrazol-4-yl)-3,4-dihydro-2H-quinolin-1-yl]-6,7-dihydro-4H-pyrazolo[4,3-c]pyridin-1-yl]-1-piperidyl]methyl]-3-methoxy-1-piperidyl]-N-[3-(3-chloro-4-cyano-phenoxy)-2,2,4,4-tetramethyl-cyclobutyl]pyrimidine-5-carboxamide]
≤ 0.1 nM	< 1 nM	CC(=O)N1CCc2c(c(N3CCCc4cc(-c5cnn(C)c5)c(C(F)F)cc43)nn2C2CCN(CC3C(C)CN(c4ncc(C(=O)NC5C(C)(C)C(Oc6ccc(C#N)c(C)c6C)C5(C)C)cn4)CC3C)CC2)C1 (stereo not drawn) [Compound 461, 2-[4-[[4-[5-acetyl-3-[7-(difluoromethyl)-6-(1-methylpyrazol-4-yl)-3,4-dihydro-2H-quinolin-1-yl]-6,7-dihydro-4H-pyrazolo[4,3-c]pyridin-1-yl]-1-piperidyl]methyl]-3,5-dimethyl-1-piperidyl]-N-[3-(4-cyano-2,3-dimethyl-phenoxy)-2,2,4,4-tetramethyl-cyclobutyl]pyrimidine-5-carboxamide]
0.1 to 1 nM	> 100 nM	CNC(=O)N1CCc2c(c(N3CCCc4cc(-c5cnn(C)c5)c(C(F)F)cc43)nn2C2CCN(c3ncc(C(=O)NC4C(C)(C)C(Oc5ccc(C#N)c(Cl)c5)C4(C)C)cn3)CC2)C1 (stereo not drawn) [Compound 93, 1-[1-[5-[[3-(3-chloro-4-cyano-phenoxy)-2,2,4,4-tetramethyl-cyclobutyl]carbamoyl]pyrimidin-2-yl]-4-piperidyl]-3-[7-(difluoromethyl)-6-(1-methylpyrazol-4-yl)-3,4-dihydro-2H-quinolin-1-yl]-N-methyl-6,7-dihydro-4H-pyrazolo[4,3-c]pyridine-5-carboxamide]
0.1 to 1 nM	< 1 nM	CC(=O)N1CCc2c(c(N3CCCc4cc(-c5cnn(C)c5)c(C)cc43)nn2C2CCN(CC3C(C)CN(c4ncc(C(=O)NC5C(C)(C)C(Oc6ccc(C#N)c(Cl)c6)C5(C)C)cn4)CC3C)CC2)C1 (stereo not drawn) [Compound 444, 2-[4-[[4-[5-acetyl-3-[7-methyl-6-(1-methylpyrazol-4-yl)-3,4-dihydro-2H-quinolin-1-yl]-6,7-dihydro-4H-pyrazolo[4,3-c]pyridin-1-yl]-1-piperidyl]methyl]-3,5-dimethyl-1-piperidyl]-N-[3-(3-chloro-4-cyano-phenoxy)-2,2,4,4-tetramethyl-cyclobutyl]pyrimidine-5-carboxamide]
0.1 to 1 nM	< 1 nM	COc1cc(OC2C(C)(C)C(NC(=O)c3ccc(N4CCC(C5CCC(n6cc(-c7cc8cccc(-c9nn(C%10CCOCC%10)c%10c9CN(C(C)=O)CC%10)c8cn7)cn6)CC5)CC4)cc3)C2(C)C)ccc1C#N (stereo not drawn) [Compound 271, 4-[4-[4-[4-[8-(5-acetyl-1-tetrahydropyran-4-yl-6,7-dihydro-4H-pyrazolo[4,3-c]pyridin-3-yl)-3-isoquinolyl]pyrazol-1-yl]cyclohexyl]-1-piperidyl]-N-[3-(4-cyano-3-methoxy-phenoxy)-2,2,4,4-tetramethylcyclobutyl]benzamide]
0.1 to 1 nM	< 1 nM	COc1cc(OC2C(C)(C)C(NC(=O)c3ccc(OC4CC5(C4)CC(N4CCC(n6nc(N7CCCc8cc(-c9cnn(C)c9)c(C(F)F)cc87)c7c6CCN(C(C)=O)C7)CC4)C5)cc3)C2(C)C)ccc1C#N (stereo not drawn) [Compound 386, 4-[6-[4-[5-acetyl-3-[7-(difluoromethyl)-6-(1-methylpyrazol-4-yl)-3,4-dihydro-2H-quinolin-1-yl]-6,7-dihydro-4H-pyrazolo[4,3-c]pyridin-1-yl]-1-piperidyl]spiro[3.3]heptan-2-yl]oxy-N-[3-(4-cyano-3-methoxy-phenoxy)-2,2,4,4-tetramethyl-cyclobutyl]benzamide]

SMILES	IC50 (VCaP cells)	EC50 (AR / CBP ternary complex)
CC(=O)N1CCc2c(c(N3CCCc4cc(-c5cnn(C)c5)c(C(F)F)cc43)nn2C2CCN(C(=O)C3CCN(c4ccc(C(=O)NC5C(C)(C)C(Oc6ccc(C#N)c(Cl)c6)C5(C)C)nn4)CC3)CC2)C1 (stereo not drawn) [Compound 114, 6-[4-[4-[5-acetyl-3-[7-(difluoromethyl)-6-(1-methylpyrazol-4-yl)-3,4-dihydro-2H-quinolin-1-yl]-6,7-dihydro-4H-pyrazolo[4,3-c]pyridin-1-yl]piperidine-1-carbonyl]-1-piperidyl]-N-[3-(3-chloro-4-cyano-phenoxy)-2,2,4,4-tetramethyl-cyclobutyl]pyridazine-3-carboxamide]	≤ 0.1 nM	< 1 nM
